Laboratory results as given in patent US11147795B2, “Neuroprotective compounds and methods of use” (ARIZONA BOARD OF REGENTS ON BEHALF OF THE UNIVERSITY OF …, priority 2014, dated 2021).

System: larvae expressing TDP-43 in motor neurons
Test: Larval turning assay (locomotor function)
Assay type: in vivo, Drosophila
Details: for locomotor function measured by larval turning assays: TDP-43 expressed in motor neurons, FIGS. 1-3; for locomotor function: Student's t-test, N>20 larvae/genotype
Experimental: Drosophila genetics. TDP-43 was expressed in motor neurons using the GAL4-UAS bipartite expression system. D42 GAL4 was used as an expression driver and UAS-TDP-43 YFP trasgenics were used as responder lines (Estes, et al., 2011, Hum. Mol. Genet).
Locomotor function. Locomotion was assessed using quantitative larval turning assays. Crosses were carried out at 25° C. and wandering third instar larvae were placed on a grape juice plate at room temperature. After a 30 second acclimation period, larvae were gently turned ventral side up. They were observed until they turned over (dorsal side up) and began making a forward motion. The time it took to complete this task was recorded for at least 20 larvae per genotype.
Statistical analyses. Student's t-tests were performed to determine statistical significance.

[1] = larvae expressing TDPG298S in motor neurons
[2] = larvae expressing TDPWT in motor neurons

## COc1cc2c(C(=O)C(F)(F)F)c(C(F)(F)F)[nH]c2cc1F [EV-3-298]
  locomotor function measured by larval turning assays: significant improvement of locomotor function
[1]
  locomotor function: improves locomotor function
[2]
  locomotor function: improves locomotor function

## CCOC(=O)C1=CCN([S@@+]([O-])C(C)(C)C)[C@H]1c1ccsc1 [CH-III-31]
  locomotor function measured by larval turning assays: significant improvement of locomotor function
[1]
  locomotor function: improves locomotor function
[2]
  locomotor function: improves locomotor function

## CCOC(=O)C1=CCN([S@+]([O-])C(C)(C)C)[C@@H]1C[C@@H](C)CCC=C(C)C [CH-I-108]
  locomotor function measured by larval turning assays: significant improvement of locomotor function
[1]
  locomotor function: improves locomotor function
[2]
  locomotor function: improves locomotor function
